Assay results taken from patent publication US20110039721A1, “METHOD FOR PREDICTION ABOUT CARCINOGENICITY OF SUBSTANCE IN RODENT” (Chemicals Evaluation and Research Institute, priority 2007, published 2011).

Assays:
[1] = tested on: liver; conditions: in vivo; cited from earlier work
[2] = tested on: rodent; conditions: in vivo; cited from earlier work
[3] = tested on: mRNA expressed from the genes (A) to (D) in rat liver; assay: Behavior of genes (mRNA expression level, oligo-DNA microarray) in rat liver after 28-day oral administration; format: in vivo; conditions: rat, in vivo
Method in brief: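 Groups of four male F344 SPF rats aged 5 weeks are gavaged once a day for 28 days with test chemical in solvent or with solvent alone at equal volume. Total RNA comes from liver taken on day 28. Fold change of 1.5 or 1/1.5 versus control, directionally consistent, defines significance.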

SMILES: Cl[C@H]1[C@H](Cl)[C@H](Cl)[C@@H](Cl)[C@H](Cl)[C@H]1Cl [TS021, α-Hexachlorocyclohexane]
- Liver carcinogenicity [1]: Cr+
- Carcinogenicity [2]: C+
- Behavior of gene caused by administration of chemical substance, Gene No. 154 [3]: −
- Behavior of gene caused by administration of chemical substance, Gene No. 533 [3]: +
- Behavior of gene caused by administration of chemical substance, Gene No. 725 [3]: −
- Behavior of gene caused by administration of chemical substance, Gene No. 813 [3]: +
- Behavior of gene caused by administration of chemical substance, Gene No. 893 [3]: −
- Behavior of gene caused by administration of chemical substance, Gene No. 1119 [3]: −
- Behavior of gene caused by administration of chemical substance, Gene No. 1131 [3]: −
- Behavior of gene caused by administration of chemical substance, Gene No. 1163 [3]: −
- Behavior of gene caused by administration of chemical substance, Gene No. 1334 [3]: −
- Behavior of gene caused by administration of chemical substance, Gene No. 1494 [3]: +
- Behavior of gene caused by administration of chemical substance, Gene No. 1562 [3]: −
- Behavior of gene caused by administration of chemical substance, Gene No. 1741 [3]: +
- Behavior of gene caused by administration of chemical substance, Gene No. 1993 [3]: −
- Behavior of gene caused by administration of chemical substance, Gene No. 2026 [3]: −
- Behavior of gene caused by administration of chemical substance, Gene No. 2045 [3]: +
- Behavior of gene caused by administration of chemical substance, Gene No. 2203 [3]: +
- Behavior of gene caused by administration of chemical substance, Gene No. 2494 [3]: −
- Behavior of gene caused by administration of chemical substance, Gene No. 2546 [3]: −
- Behavior of gene caused by administration of chemical substance, Gene No. 3776 [3]: −
- Behavior of gene caused by administration of chemical substance, Gene No. 3929 [3]: −
- Behavior of gene caused by administration of chemical substance, Gene No. 4095 [3]: +
- Behavior of gene caused by administration of chemical substance, Gene No. 4218 [3]: −
- Behavior of gene caused by administration of chemical substance, Gene No. 4846 [3]: −
- Behavior of gene caused by administration of chemical substance, Gene No. 4973 [3]: +
- Behavior of gene caused by administration of chemical substance, Gene No. 5600 [3]: −
- Behavior of gene caused by administration of chemical substance, Gene No. 5634 [3]: +
- Behavior of gene caused by administration of chemical substance, Gene No. 5726 [3]: −
- Behavior of gene caused by administration of chemical substance, Gene No. 5878 [3]: −
- Behavior of gene caused by administration of chemical substance, Gene No. 6026 [3]: −
- Behavior of gene caused by administration of chemical substance, Gene No. 6182 [3]: +
- Behavior of gene caused by administration of chemical substance, Gene No. 6303 [3]: +
- Behavior of gene caused by administration of chemical substance, Gene No. 6620 [3]: −
- Behavior of gene caused by administration of chemical substance, Gene No. 6742 [3]: +
